Here are results for 18 molecules from ChEMBL document CHEMBL3596135, “A critical evaluation of pyrrolo[2,3-d]pyrimidine-4-amines as Plasmodium falciparum apical membrane antigen 1 (AMA1) inhibitors” (Medchemcomm, 2014).

Data set [1] addresses T1, Apical membrane antigen 1 (Plasmodium falciparum (isolate 3D7)) (UniProt Q7KQK5).
T1 sequence (whole entry): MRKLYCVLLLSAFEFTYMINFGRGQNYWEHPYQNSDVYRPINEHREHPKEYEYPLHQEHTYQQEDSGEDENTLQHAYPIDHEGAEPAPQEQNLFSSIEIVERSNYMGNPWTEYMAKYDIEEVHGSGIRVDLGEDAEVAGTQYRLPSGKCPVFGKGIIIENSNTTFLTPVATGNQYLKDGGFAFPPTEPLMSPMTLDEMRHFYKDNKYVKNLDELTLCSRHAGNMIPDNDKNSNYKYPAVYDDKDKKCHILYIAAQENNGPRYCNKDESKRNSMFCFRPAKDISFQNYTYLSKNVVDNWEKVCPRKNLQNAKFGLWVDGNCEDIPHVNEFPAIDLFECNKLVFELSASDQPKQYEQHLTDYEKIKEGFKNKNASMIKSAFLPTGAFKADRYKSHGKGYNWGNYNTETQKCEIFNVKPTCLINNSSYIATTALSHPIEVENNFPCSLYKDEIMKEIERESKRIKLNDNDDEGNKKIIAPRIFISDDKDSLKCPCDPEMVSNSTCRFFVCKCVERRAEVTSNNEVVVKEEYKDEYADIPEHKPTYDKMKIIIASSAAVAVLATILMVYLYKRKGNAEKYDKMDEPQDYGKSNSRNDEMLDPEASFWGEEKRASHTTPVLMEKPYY
In words: Binding affinity to Plasmodium falciparum 3D7 AMA1 (104 to 442) up to 200 uM by SPR analysis. Background: In SPR one partner is held on a chip, and binding of the other changes the refractive index at the surface.

Data set [2] concerns the target T2, Apical membrane antigen 1 (Plasmodium falciparum (isolate 3D7), UniProt Q7KQK5).
T2 sequence (Q7KQK5 whole entry): T1 sequence (whole entry)
In words: Binding affinity to Plasmodium falciparum 3D7 AMA1 (104 to 442) by SPR analysis.

Data set [3] is described as follows: Self-aggregating activity of the compound in phosphate buffer at pH 7.4 at 80 uM by 1D 1H-NMR spectroscopic analysis in presence of Tween 20. It is filed as physicochemical. To be noted: pH 7.4, 80 µM.
The nature of data set [4]: Solubility of the compound in phosphate buffer at pH 7.4. It is filed as physicochemical.
Data set [5] can be described thus: Self-aggregating activity of the compound in phosphate buffer at pH 7.4 at 5 to 80 uM by 1D 1H-NMR spectroscopic analysis in absence of Tween 20. It is filed as physicochemical. To be noted: pH 7.4, 80 µM.
Data set [6] deals with Plasmodium falciparum. In words: Antimalarial activity against synchronised early trophozoite stage of Plasmodium falciparum 3D7 assessed as parasite growth inhibition measured after two invasion cycles by flow cytometric analysis. It is filed as functional, organism-based. A general note: In flow cytometry, cells or beads pass a laser one at a time.
Data set [7] relates to Plasmodium falciparum. In words: Antimalarial activity against Plasmodium falciparum FVO schizont infected in RBC assessed as inhibition of merozoite invasion after 3 to 4 hrs by flow cytometric analysis. It is filed as functional, organism-based.
Data set [8] concerns the target T1, Apical membrane antigen 1 (Plasmodium falciparum (isolate 3D7)). In words: Competitive binding affinity to Plasmodium falciparum 3D7 AMA1 (104 to 442) at 80 uM after 200 milisecs by CPMG binding assay in presence of RON2 peptide and absence of detergent.
Data set [9] shares this target. Put plainly: Competitive binding affinity to Plasmodium falciparum 3D7 AMA1 (104 to 442) at 80 uM after 200 milisecs by CPMG binding assay in presence of RON2 peptide and Tween 20.
The target is the same in data set [10]. Put plainly: Competitive binding affinity to Plasmodium falciparum 3D7 AMA1 (104 to 442) at 80 uM after 200 milisecs by CPMG binding assay in presence of R1 peptide and Tween 20.
For data set [11] the target is unchanged. In words: Competitive binding affinity to Plasmodium falciparum 3D7 AMA1 (104 to 442) at 80 uM after 200 milisecs by CPMG binding assay in presence of R1 peptide and absence of detergent.
Data set [12] has as its target T2, Apical membrane antigen 1. In words: Binding affinity to recombinant His-tagged Plasmodium falciparum 3D7 AMA1 assessed as inhibition of interaction with biotin-tagged RON2 peptide after 30 mins by AlphaScreen assay. A general note: In Alpha technology, singlet oxygen from a donor bead excites a nearby acceptor bead.

pIC50, pKd: −log10 of the molar value. Structures can show the parent of a compound that is named as a salt. Activity calls are given as the source filed them. The calls are words filed in the database; no cut-off is given here.

With `Clc1[nH]cnc2nccc1-2`, in data set [1], the result was inactive.
Usually pKd stands for the negative decadic logarithm of the Kd, by convention in mol/L. Low readings indicate a large Kd, high ones a small Kd. For `COc1ccc(-c2cn(C)c3ncnc(N)c23)cc1`, in data set [2], the pKd is at most 3.00. Also, the Activity entry in data set [3] and in [5] was “Not Active” throughout. In data set [4], the solubility entry was “soluble”. Also, the “growth inhibition (GI)” value in the data set with Plasmodium falciparum [6] was “Active”.
Take `Cn1cc(-c2ccc(N)cc2)c2c(N)ncnc21`: in data set [2], the pKd was at most 3.00. For the same molecule, the Activity result in data set [3] and in [5] was “Not Active” in each case. Moreover, the solubility result in data set [4] is “soluble”. For the same molecule, the “growth inhibition (GI)” value with Plasmodium falciparum [6] is “Active”.
As usually defined, the pIC50 is −log10 of the IC50, conventionally taken in molar units. Consider `CN(C)c1ncnc2c1c(-c1ccc(Oc3ccccc3)cc1)cn2C1CCCC1`, for which the results for the pIC50 with Plasmodium falciparum [7] and with Plasmodium falciparum [6] were 5.22 and under 3.00, respectively. The molecule further showed a pKd in data set [2] of at most 3.00. In addition, the Activity result is “Not Active” in data set [3] and “Active” in data set [5]. For the same molecule, the solubility entry in [4] is “soluble”.
`Cn1cc(-c2ccccc2)c2c(N)ncnc21` gave a pKd in data set [2] of at most 3.00. Moreover, the Activity result in [3] and in [5] was “Not Active” each time. The solubility entry in [4] was “soluble”. In addition, in the data set on Plasmodium falciparum [6], the “growth inhibition (GI)” value was “Active”.
Take `COc1ccc(-c2cn(C3CCCC3)c3ncnc(N)c23)cc1`: the pIC50 in the data set with Plasmodium falciparum [7] was 5.01; in the data set with Plasmodium falciparum [6], 4.20. Besides, the result in [8], in data set [9], in [10] and in data set [11] was Active. Besides, the pKd in data set [2] was at most 3.00. In addition, the Activity entry in [3] and in [5] was “Not Active” throughout. The solubility result in data set [4] is listed as “soluble”.
As to `Cn1cc(-c2ccncc2)c2c(N)ncnc21`, the pKd in data set [2] was at most 3.00. The Activity result in [3] and in data set [5] was “Not Active” each time. Besides, the solubility result in data set [4] is given as “soluble”. For the same molecule, in the data set on Plasmodium falciparum [6], the “growth inhibition (GI)” value was “Active”.
The molecule `Cn1cc(-c2ccccc2F)c2c(N)ncnc21` showed a pKd in data set [2] of at most 3.00. Further, the Activity result in data set [3] and in data set [5] was “Not Active” each time. In data set [4], the solubility result was “soluble”. Further, in the data set on Plasmodium falciparum [6], the “growth inhibition (GI)” value was “Active”.
As for `Clc1ncnc2c1c(Br)cn2C1CCCC1`, the result in data set [1] was inactive.
The molecule `Cn1cc(-c2cccc(N)c2)c2c(N)ncnc21` gave a pKd in data set [2] of at most 3.00. Further, the Activity result in [3] and in data set [5] was “Not Active” in each case. Moreover, the solubility result in data set [4] is “soluble”. For the same molecule, the “growth inhibition (GI)” value in the data set on Plasmodium falciparum [6] was “Active”.
Take `Nc1ncnc2c1c(-c1ccc(Oc3ccccc3)cc1)cn2C1CCCC1`: the pIC50 is 4.52 in the data set with Plasmodium falciparum [7] and under 3.00 in the data set with Plasmodium falciparum [6]. The molecule further showed a pKd in data set [2] of at most 3.00. The Activity entry is given as “Not Active” in data set [3] and “Active” in [5]. Besides, the solubility result in [4] is given as “soluble”.
Regarding `Clc1cccc(C(c2ccc3[nH]cnc3c2)n2ccnc2)c1` (stereo unspecified) [LIAROZOLE HYDROCHLORIDE], the pIC50 in data set [12] is 4.54.
As to `CCn1cc(-c2ccc(OC)cc2)c2c(N)ncnc21`, the pKd in data set [2] is at most 3.00. In addition, the Activity result in data set [3] and in [5] was “Not Active” throughout. In addition, the solubility entry in data set [4] is listed as “soluble”. Moreover, the “growth inhibition (GI)” value in the data set with Plasmodium falciparum [6] was “Active”.
As for `Cn1cc(-c2ccc(F)cc2)c2c(N)ncnc21`, the pKd in data set [2] was at most 3.00. The Activity result in [3] and in data set [5] was “Not Active” in each case. Besides, in [4], the solubility entry was “soluble”. The “growth inhibition (GI)” value in the data set with Plasmodium falciparum [6] was “Active”.
With `CN(C)CCCN1c2ccccc2C(C)(C)c2ccccc21` [DIMETACRINE], in data set [12], the pIC50 was 4.55.
In [2], `COc1cccc(-c2cn(C)c3ncnc(N)c23)c1` gave a pKd of at most 3.00. In addition, the Activity result in data set [3] and in [5] was “Not Active” in each case. For the same molecule, the solubility result in [4] was “soluble”. Also, the “growth inhibition (GI)” value with Plasmodium falciparum [6] was “Active”.
With `COc1ccccc1-c1cn(C)c2ncnc(N)c12`, the pKd in data set [2] was at most 3.00. Also, the Activity result in [3] and in [5] was “Not Active” in each case. Besides, in [4], the solubility entry is on record as “soluble”. Moreover, the “growth inhibition (GI)” value in the data set with Plasmodium falciparum [6] was “Active”.
Consider `Cn1cc(-c2cccc(F)c2)c2c(N)ncnc21`, for which, in data set [2], the pKd was at most 3.00. For the same molecule, the Activity entry in data set [3] and in data set [5] was “Not Active” in each case. For the same molecule, the solubility result in data set [4] was “soluble”. Moreover, the pIC50 in the data set on Plasmodium falciparum [6] is over 4.51.
